Like-named read-outs stand apart in the source and are kept apart here.

Data set [1] deals with platelet aggregation by collagen. Kind of data set: inhibiting action on platelet aggregation by collagen (COLLAGEN TEST), plasma of orally treated rats. The settings on record: Rattus norvegicus, read-out: Percentage inhibition of platelet aggregation (collagen test). The format is in vivo, Wistar rats. On the procedure:
(§1) A sample of blood is taken from the jugular vein of Wistar rats, which have previously been treated with the compound to be tested. From this blood, which is citrate-treated and centrifuged, there is reconstituted a plasma containing 600,000±20,000 platelets per mm^3, which is employed in all the aggregation measurements.
(§2) 0.4 ml. of plasma is treated in a siliconised tube provided with a bar magnet which is also siliconised. The tube is introduced into an aggregometer connected to an apparatus with which variations in optical density can be recorded. When the light transmission has reached a stable value, 0.5 ml. of a solution containing […] of ADP (adenosine diphosphate)is introduced into the tube.
(§3) Platelet aggregation then causes an increase in light transmission, followed by a reduction in light transmission due to the subsequent disaggregation stage.
(§4) The maximum variation in optical density thus determined relative to that of a plasma free of platelets characterises the intensity of aggregation.
(§5) The measurements are carried out during the 2 hours which follow the taking of the blood sample, this sample being taken 3 hours after treatment with the derivative to be tested.
The ADP solution is replaced by a solution of collagen (extracted from cattle tendons).
(§6) Groups of 20 rats were used. Each group received a single dose of the compound to be tested, administered orally, the same compound being administered at different doses ranging from 5 mg./kg. to 100 mg./kg.
(§7) The results obtained are given in the following Tables II and III, which show the percentage inhibition of platelet aggregation obtained relative to the control experiment, 3 hours after treatment with the compound to be tested.

The next data set is described as follows: in vivo. The settings on record: mouse, iv. An excerpt:
This study was concerned with the acute, chronic, sub-chronic and delayed toxicities.

Data set [2] concerns platelet aggregation by ADP. Description: inhibiting action on platelet aggregation by ADP (ADP TEST), plasma of orally treated rats. The format is in vivo, Wistar rats. The settings on record: Rattus norvegicus; for inhibition at 5 mg/kg / inhibition at 12.5 mg/kg / inhibition at 25 mg/kg / inhibition at 50 mg/kg / inhibition at 100 mg/kg: read-out: Percentage inhibition of platelet aggregation (ADP test). On the procedure: as §1, §2, §3, §4, §5, §6, §7

A further data set has as its system experimental thrombosis. Kind of data set: anti-thrombosis activity, experimental thrombosis caused by extracorporal circulation (Umetsu and Sonoi). The settings on record: control (5% gum arabic) 30.41. It is filed as in vivo, rats. On the procedure: This activity was studied by the experimental thrombosis method caused by extracorporal circulation, described by Umetsu and Sonoi (Thrombos. Haemost., 39, […]).
The left jugular vein and the right external carotid are exposed in rats anaesthetised by an intraperitoneal injection of pentobarbital. A shunt is provided which consists of a central catheter and two lateral catheters. A natural white silk thread is introduced into the central part and the circulation is restarted for 20 minutes. After stopping the circulation by clamping, the thread is gently withdrawn and weighed immediately.
Treatment was carried out for 48 hours, 24 hours and 2 hours before the start of the blood circulation in shunt.
The test compounds were administered orally to different groups of animals in the form of a suspension in 10 ml. of 5% gum arabic/kg., the doses used being 12.5 mg./kg., 25 mg./kg., 50 mg./kg., 100 mg./kg. and 200 mg./kg.

Where [3] appears, read: 5 mg/kg oral, single dose, 3 hours after treatment, relative to control.
The mark [4] stands for this setting: 12.5 mg/kg oral, single dose, 3 hours after treatment, relative to control.
[5] abbreviates: 25 mg/kg oral, single dose, 3 hours after treatment, relative to control.
The mark [6] stands for this setting: 50 mg/kg oral, single dose, 3 hours after treatment, relative to control.
Where [7] appears, read: 100 mg/kg oral, single dose, 3 hours after treatment, relative to control.

Consider `Cc1ccccc1CN1CCC2SC(=O)C=C2C1` (centres unmarked) [Derivative 4, 5-(o-Methylbenzyl)-5,6,7,7a-tetrahydro-4H-thieno-[3,2-c]pyridin-2-one], for which, in data set [1] (po, 3 h), the inhibition – broadly, the change of the read-out against control, counted positive when it falls – at 5 mg/kg is 17.1%; the inhibition at 12.5 mg/kg turned out to be 45.2%; the inhibition at 25 mg/kg is 85.9%; the inhibition at 50 mg/kg turned out to be 88.1%. Moreover, the inhibition at 100 mg/kg in data set [1] (po, 3 h) turned out to be 88.2%. The LD50 – broadly, the dose at which mortality reaches 50% – at 24 h in “in vivo” amounted to 110 mg/kg. In addition, in data set [2] (po, 3 h), the inhibition at 5 mg/kg turned out to be 48%, the inhibition at 12.5 mg/kg turned out to be 81.9%, the inhibition at 25 mg/kg came out at 82.1% and the inhibition at 50 mg/kg was found to be 82.8%. In addition, the inhibition at 100 mg/kg in data set [2] (po, 3 h) is 82.9%.
For `O=C1C=C2CN(Cc3ccccc3[N+](=O)[O-])CCC2S1` (centres unmarked) [Derivative 8, 5-(o-Nitrobenzyl)-5,6,7,7a-tetrahydro-4H-thieno[3,2-c]-pyridin-2-one], the inhibition at 5 mg/kg in data set [1] (setting [3]) was 17%; in data set [2] (setting [3]), 48%. Also, the inhibition at 12.5 mg/kg in data set [1] (setting [4]) stood at 44.6%; in data set [2] (setting [4]), 82.8%. In addition, the inhibition at 25 mg/kg in data set [1] (setting [5]) is 86.2%; in data set [2] (setting [5]), 83.1%. Moreover, the values for the inhibition at 50 mg/kg in data set [1] (setting [6]) and in data set [2] (setting [6]) were 88.2% and 83.3%, respectively. Besides, the inhibition at 100 mg/kg was determined as 88.7% in data set [1] (setting [7]) and 83.4% in data set [2] (setting [7]). The compound also displayed an LD50 at 24 h in “in vivo” of 278 mg/kg.
On to `O=C1C=C2CN(Cc3ccc(Cl)cc3)CCC2S1` (centres unmarked) [Derivative 3, 5-(p-Chlorobenzyl)-5,6,7,7a-tetrahydro-4H-thieno-[3,2-c]pyridin-2-one], for which, in data set [1] (po, 3 h), the inhibition at 5 mg/kg worked out at 17.4%, the inhibition at 12.5 mg/kg came out at 44.9%, the inhibition at 25 mg/kg was found to be 86.5% and the inhibition at 50 mg/kg was found to be 87.2%. Further, the inhibition at 100 mg/kg in data set [1] (po, 3 h) stood at 88.1%. In the data set with experimental thrombosis (12.5 mg/kg oral, 48, 24 and 2 hours before), the “Average weight of the thrombi” value is 26.72 mg. Besides, the “Average weight of the thrombi” value with experimental thrombosis (25 mg/kg oral, 48, 24 and 2 hours before) is reported as 12.04 mg. In the data set with experimental thrombosis (50 mg/kg oral, 48, 24 and 2 hours before), the “Average weight of the thrombi” value stood at 5.96 mg. Moreover, the “Average weight of the thrombi” value in the data set with experimental thrombosis (100 mg/kg oral, 48, 24 and 2 hours before) worked out at 4.62 mg. In the data set “in vivo”, this compound yielded an LD50 at 24 h of 125 mg/kg. In data set [2] (po, 3 h), the inhibition at 5 mg/kg was found to be 48.1%, the inhibition at 12.5 mg/kg stood at 82.4%, the inhibition at 25 mg/kg came to 83% and the inhibition at 50 mg/kg is 83.5%. The inhibition at 100 mg/kg in data set [2] (po, 3 h) stood at 83.6%.
With `CC(c1ccccc1Cl)N1CCC2SC(=O)C=C2C1` (centres unmarked) [Derivative 5, 5-[1-(2-Chlorophenyl)-ethyl]-5,6,7,7a-tetrahydro-4H-thieno[3,2-c]pyridin-2-one], the inhibition at 5 mg/kg in data set [1] (setting [3]) was determined as 17%; in data set [2] (setting [3]), 48.4%. The inhibition at 12.5 mg/kg was 44.8% in data set [1] (setting [4]) and 82% in data set [2] (setting [4]). Also, the inhibition at 25 mg/kg in data set [1] (setting [5]) worked out at 86.1%; in data set [2] (setting [5]), 82.4%. The inhibition at 50 mg/kg in data set [1] (setting [6]) turned out to be 87.8%; in data set [2] (setting [6]), 83.2%. Also, the inhibition at 100 mg/kg stood at 88% in data set [1] (setting [7]) and 83.5% in data set [2] (setting [7]). In “in vivo”, this compound came in with an LD50 at 24 h of 286 mg/kg.
In the case of `O=C1C=C2CN(Cc3ccccc3)CCC2S1` (centres unmarked) [Derivative 2, 5-Benzyl-5,6,7,7a-tetrahydro-4H-thieno[3,2-c]-pyridin-2-one], in data set [1] (po, 3 h), the inhibition at 5 mg/kg stood at 16.5%, the inhibition at 12.5 mg/kg is 44.2%, the inhibition at 25 mg/kg is 85.8% and the inhibition at 50 mg/kg worked out at 87%. In addition, the inhibition at 100 mg/kg in data set [1] (po, 3 h) stood at 87.8%. This compound displayed an LD50 at 24 h in “in vivo” of 116 mg/kg. Besides, in data set [2] (po, 3 h), the inhibition at 5 mg/kg is 47.8%, the inhibition at 12.5 mg/kg was 82.6%, the inhibition at 25 mg/kg came out at 82.9% and the inhibition at 50 mg/kg is 83.7%. Besides, the inhibition at 100 mg/kg in data set [2] (po, 3 h) turned out to be 83.7%.
As for `O=C1C=C2CN(Cc3ccccc3Br)CCC2S1` (centres unmarked) [Derivative 9, 5-(o-Bromobenzyl)-5,6,7,7a-tetrahydro-4H-thieno[3,2-c]-pyridin-2-one], in data set [1] (po, 3 h), the inhibition at 5 mg/kg turned out to be 17.2%, the inhibition at 12.5 mg/kg amounted to 44.9%, the inhibition at 25 mg/kg stood at 86.4% and the inhibition at 50 mg/kg came to 87.6%. For the same compound, in data set [1] (po, 3 h), the inhibition at 100 mg/kg came out at 88.6%. This compound also displayed an LD50 at 24 h in the data set “in vivo” of 118 mg/kg. In data set [2] (po, 3 h), the inhibition at 5 mg/kg was found to be 48.4%, the inhibition at 12.5 mg/kg is 83.1%, the inhibition at 25 mg/kg is 83.4% and the inhibition at 50 mg/kg was found to be 83.7%. In addition, the inhibition at 100 mg/kg in data set [2] (po, 3 h) worked out at 84%.
Regarding `N#Cc1ccccc1CN1CCC2SC(=O)C=C2C1` (centres unmarked) [Derivative 7, 5-(o-Cyanobenzyl)-5,6,7,7a-tetrahydro-4H-thieno[3,2-c]-pyridin-2-one], the inhibition at 5 mg/kg was 16.5% in data set [1] (setting [3]) and 47.6% in data set [2] (setting [3]). For the same compound, the figures for the inhibition at 12.5 mg/kg in data set [1] (setting [4]) and in data set [2] (setting [4]) were 44.5% and 82.7%, respectively. In addition, the inhibition at 25 mg/kg in data set [1] (setting [5]) worked out at 86.2%; in data set [2] (setting [5]), 82.9%. Also, the inhibition at 50 mg/kg in data set [1] (setting [6]) amounted to 87.9%; in data set [2] (setting [6]), 83.1%. The inhibition at 100 mg/kg amounted to 89.4% in data set [1] (setting [7]) and 83.2% in data set [2] (setting [7]). The same compound showed an LD50 at 24 h in the data set “in vivo” of 254 mg/kg.
Take `CCC(c1ccccc1Cl)N1CCC2SC(=O)C=C2C1` (centres unmarked) [Derivative 6, 5-[1-(2-Chlorophenyl)-propyl]-5,6,7,7a-tetrahydro-4H-thieno[3,2-c]pyridin-2-one]: the inhibition at 5 mg/kg in data set [1] (setting [3]) amounted to 16.8%; in data set [2] (setting [3]) it was 48.7%. Besides, the figures for the inhibition at 12.5 mg/kg in data set [1] (setting [4]) and in data set [2] (setting [4]) were 44.4% and 83%, respectively. In addition, the inhibition at 25 mg/kg in data set [1] (setting [5]) came to 85.7%; in data set [2] (setting [5]), 83.4%. Moreover, the results for the inhibition at 50 mg/kg in data set [1] (setting [6]) and in data set [2] (setting [6]) were 89% and 83.9%, respectively. Moreover, the inhibition at 100 mg/kg in data set [1] (setting [7]) was determined as 89.2%; in data set [2] (setting [7]), 83.9%. For the same compound, the LD50 at 24 h in “in vivo” is 121 mg/kg.
With `N#Cc1ccccc1CN1CCc2sccc2C1` [Reference compound B, 5-(2-cyanobenzyl)-4,5,6,7-tetrahydrothieno[3,2-c]pyridine, reference compound], the inhibition at 5 mg/kg in data set [1] (setting [3]) and in data set [2] (setting [3]) was 0% in each case. Moreover, the inhibition at 12.5 mg/kg in data set [1] (setting [4]) and in data set [2] (setting [4]) was 0% each time. For the same compound, the inhibition at 25 mg/kg in data set [1] (setting [5]) is 38.5%; in data set [2] (setting [5]) it was 0%. In addition, the results for the inhibition at 50 mg/kg in data set [1] (setting [6]) and in data set [2] (setting [6]) were 51.2% and 35.5%, respectively. For the same compound, the figures for the inhibition at 100 mg/kg in data set [1] (setting [7]) and in data set [2] (setting [7]) were 78.8% and 63.8%, respectively. This compound came in with an LD50 at 24 h in the data set “in vivo” of 45 mg/kg. In data set [2] (3 h, oral, rats, stated for the aggregation tests (ADP and collagen), read-out: dose at which significant (or similar) platelet aggregation inhibiting activity manifests itself), the minimal effective dose was found to be 100 mg/kg.

Source of the values: patent US4515951A, “Preparation of 5,6,7,7a-tetrahydro-4H-thieno[3,2-c]pyridin-2-one compounds” (Sanofi, priority 1980, dated 1985).
